Measurements published in patent publication US7081568B2, “Transgenic plants expressing temporin peptides” (University of Victoria Innovation and Development …, priority 1999, dated 2006).
Where no end group is shown, it is not given here.

How the values were obtained:
Escherichia coli = assay: Bactericidal effect of antimicrobial peptides in microtiter plates, colony count; type: cell-based; details: approximately 1×10^5 bacteria/ml, 4 hours at room temperature, plated on LB, FIG. 2
Experimental: The cell cultures were incubated at room temperature in the presence of indicated concentration of Dermaseptin B (DSB; 7 μg/ml, 30 μg/ml, and 75 μg/ml), Temporin A (TA; 75 μg/ml, 133 μg/ml, 200 μg/ml) and a combination of Temporin A and Dermaseptin B (133 μg/ml Temporin A and 30 μg/ml Dermaseptin B) for 4 hours, diluted and plated on LB plates. After overnight incubation at 37° C., the colonies were counted and the survival of bacteria was scored.
(§1) Bactericidal effects of antimicrobial peptides (SEQ ID NO: 34 (MRSA3) and SEQ ID NO: 28 (MRSA2)) were determined against Escherichia coli (FIG. 2) and Erwinia carolovora (FIG. 3) in microtiter plates in a final volume of 220 μl containing approximately 1×10^5 bacteria/ml and indicated concentration of antimicrobial peptides. The cell cultures were incubated at room temperature for 4 hours, diluted and plated on LB plates. After overnight incubation at 37° C. (E. coli) or 28° C. (E. carotovora) the colonies were counted and the survival of bacteria was scored.

Erwinia carotovora = assay: as above; type: cell-based; details: approximately 1×10^5 bacteria/ml, 4 hours at room temperature, plated on LB, FIG. 3
Experimental: The cell cultures were incubated at room temperature in the presence of indicated concentration of Dermaseptin B (DSB; 23 μg/ml, 45 μg/ml) or Temporin A (TA; 67 μg/ml, 133 μg/ml) for 4 hours, diluted and plated on LB plates. After overnight incubation at 28° C., the colonies were counted and the survival of bacteria was scored.
as §1

Row | Substance | bactericidal effect, survival of bacteria (Escherichia coli) | bactericidal effect, survival of bacteria (Erwinia carotovora)
1 | MRSA2: mature 27 amino acid form of dermaseptin b with a 5 amino acid N-terminal extension MAMWK; called Dermaseptin B in figure legends (MAMWKDVLKKIGTVALHAGKAALGAVADTISQ; ends and bridges not checked) | significant antimicrobial activity | significant antimicrobial activity
2 | MRSA3: mature 13 amino acid form of temporin A with a 6 amino acid N-terminal extension MASRHM; called Temporin A in figure legends (MASRHMFLPLIGRVLSGIL; ends and bridges not checked; listed as Rana temporaria) | significant antimicrobial activity | significant antimicrobial activity
